Data reported in patent publication US4053478A, “2,5-Di-substituted 4-oxazolealkanoic acids and esters” (Yoshitomi Pharmaceutical Industries, Ltd., priority 1974, dated 1977).

Key:
[1] = system: bleeding time induced by platelet thrombi; experiment: Anti-thrombotic action: bleeding time induced by platelet thrombi, tail vein puncture (Table 4); format: in vivo; settings: oral, one hour after administration, male mice
Procedure: The bleeding time induced by platelet thrombi was compared with that of the control group, and the rate of prolongation was calculated as an index of anti-thrombotic activity.

[2] = Acute toxicity, rat (Table 5); settings: in vivo, oral, lethality within two days, read-out: LD50 per os, Rat
Procedure: (§1) The test compound was orally administered to groups each of 5 male mice and rats respectively. The LD50 was calculated from the lethal rate (50%) within two days after administration of the test compound.

serum cholesterol level [3] = experiment: Hypolipidemic action: dietary hyperlipidemia in male mice (Table 2); format: in vivo, dd-strain male mice; settings: 5 days
Procedure: ii. Dietary hyperlipidemia in male mice (Table 2)
dd-Strain male mice weighing 20-25 g. were used. Each group was composed of 8 mice. Animals were fed with NMF food (Oriental Yeast Co., Tokyo) containing 1% of cholesterol, 0.2% of cholic acid and 5% of olive oil, and the serum cholesterol level was measured by the use of an autoanalyzer after 5 days administration of the test compound. The levels in the test group was compared with that in the control group given the same diet.

[4] = Acute toxicity, mouse (Table 5); settings: in vivo, oral, lethality within two days, read-out: LD50 per os, Mouse
Procedure: as §1

[5] = system: serum cholesterol and triglyceride levels; experiment: Hypolipidemic action: male rats with normal serum lipid (Table 1); format: in vivo, Wistar strain male rats; settings: 100 mg/kg/day, oral (gastric tube), 5 days, vs control
Procedure: i. Male rats with normal serum lipid (Table 1)
Each test group was composed of more than 5 rats. The test compound was orally given by a gastric tube. Serum cholesterol and triglyceride levels were measured by the standard methods using an autoanalyzer (Technicon Inc.). The levels in the control (placebo) group were considered as 100% and the reduction (%) in the test group was calculated.

serum cholesterol level [6] = experiment: Hypolipidemic action: Triton hyperlipidemia in male mice (Table 3); format: in vivo, dd-strain male mice; settings: intraperitoneal, 18 hours after Triton
Procedure: iii. Triton hyperlipidemia in male mice (Table 3) Each group was composed of eight dd-strain male mice weighing 20-25 g. Immediately after intraperitoneal administration of the test compound to the animals, Triton WR-1339 was intraveniously given. Eighteen hours after Triton administration, the serum cholesterol level was measured and compared with that of the control group treated in the same way.

Structure (SMILES) | Prolongation Rate (%) of the Bleeding Time ([1]; 12.5 mg/kg/day) [%] | Prolongation Rate (%) of the Bleeding Time ([1]; 25 mg/kg/day) [%] | Prolongation Rate (%) of the Bleeding Time ([1]; 50 mg/kg/day) [%] | LD50 at 48 h [2] [mg/kg] | Lowering Rate (%) of Serum Cholesterol Level (serum cholesterol level [3]; 100 mg/kg/day) [%] | LD50 at 48 h [4] [mg/kg] | Lowering Rate (%) of Serum Cholesterol Level [5] [%] | Lowering Rate (%) of Serum Triglyceride Level [5] [%] | Lowering Rate (%) of Serum Cholesterol Level (serum cholesterol level [6]; 25 mg/kg/day) [%] | Lowering Rate (%) of Serum Cholesterol Level (serum cholesterol level [6]; 100 mg/kg/day) [%] | Lowering Rate (%) of Serum Cholesterol Level (serum cholesterol level [3]; 50 mg/kg/day) [%] | Prolongation Rate (%) of the Bleeding Time ([1]; 100 mg/kg/day) [%] | Lowering Rate (%) of Serum Cholesterol Level (serum cholesterol level [6]; 50 mg/kg/day) [%]
CC(=O)Oc1ccccc1C(=O)O [Acetylsalicylic Acid, reference compound] | 22 | 65 | 268 |  |  |  |  |  |  |  |  |  | 
CCOc1oc(-c2ccc(Cl)cc2)nc1CC(=O)OCc1cccnc1 [B, 3-pyridylmethyl 2-p-chlorophenyl-5-ethoxy-4-oxazoleacetate] |  |  |  | > 4000 | 43 | > 4000 | 22 | 41 |  |  |  |  | 
CCOC(=O)Cc1nc(-c2ccc(Cl)c(Cl)c2)oc1OCC [C, ethyl 2-(3,4-dichlorophenyl)-5-ethoxy-4-oxazoleacetate] |  |  |  | > 4000 |  | 2000 |  |  | 18 | 35 |  |  | 
CCOC(=O)C(C)(C)Oc1ccc(Cl)cc1 [Clofibrate, reference compound] |  |  |  | 2300 | 16 | 1500 | 31 | 35 |  | 10 | 0 | 38 | 
CCOC(=O)Cc1nc(-c2ccc(Cl)cc2)oc1OCC [Compound A, ethyl 2-p-chlorophenyl-5-ethoxy-4-oxazoleacetate] |  |  |  | > 4000 | 41 | 4000 | 25 | 45 |  | 32 | 21 |  | 26
CCOc1oc(-c2ccncc2)nc1CCC(=O)O [D, 3-[2-(4-pyridyl)-5-ethoxy-4-oxazole]propionic acid] | 107 | 209 | 321 | > 2000 |  | > 2000 |  |  |  |  |  | 439 | 
